According to US10167272B2, “Muscarinic agonists” (Heptares Therapeutics Limited, priority 2015, dated 2019):
Read-outs that look alike come from different tables or passages of the source.

Legend:
Format in all cases: cell-based
[1] = target: T1, human muscarinic M1 receptor (Homo sapiens, UniProt P11229); experiment: Alphascreen Surefire phospho-ERK1/2 functional assay, M1; settings: phospho-ERK1/2; for EC50: read-out: pEC50 M1 (converted); for Emax: CHO, read-out: % Emax cf. ACh (M1), CHO cells stably expressing human M1; for Emax / % Emax cf. ACh (M1): relative to ACh
T1 sequence (P11229 1-460): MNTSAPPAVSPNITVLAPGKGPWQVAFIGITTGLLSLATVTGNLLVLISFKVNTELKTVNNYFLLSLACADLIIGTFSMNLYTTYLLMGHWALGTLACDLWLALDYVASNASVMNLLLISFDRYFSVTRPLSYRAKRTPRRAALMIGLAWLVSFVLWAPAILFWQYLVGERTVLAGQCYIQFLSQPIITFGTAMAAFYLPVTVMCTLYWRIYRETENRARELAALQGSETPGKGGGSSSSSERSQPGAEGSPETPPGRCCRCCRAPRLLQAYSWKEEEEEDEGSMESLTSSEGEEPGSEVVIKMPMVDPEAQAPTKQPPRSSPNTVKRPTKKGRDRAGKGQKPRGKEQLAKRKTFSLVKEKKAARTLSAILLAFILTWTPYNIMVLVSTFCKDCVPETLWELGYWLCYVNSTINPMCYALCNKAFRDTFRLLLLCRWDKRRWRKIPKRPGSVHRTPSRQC
Method: (§1) ERK1/2 phosphorylation is a downstream consequence of both Gq/11 and Gi/o protein coupled receptor activation, making it highly suitable for the assessment of M1, M3 (Gq/11 coupled) and M2, M4 receptors (Gi/o coupled), rather than using different assay formats for different receptor subtypes. CHO cells stably expressing the human muscarinic M1, M2, M3 or M4 receptor were plated (25K/well) onto 96-well tissue culture plates in MEM-alpha+10% dialysed FBS. Once adhered, cells were serum-starved overnight. Agonist stimulation was performed by the addition of 5 μL agonist to the cells for 5 min (37° C.). Media was removed and 50 μL of lysis buffer added. After 15 min, a 4 μL sample was transferred to 384-well plate and 7 μL of detection mixture added.

[2] = target: T2, human muscarinic M3 receptor (Homo sapiens, UniProt P20309); experiment: Alphascreen Surefire phospho-ERK1/2 functional assay, M3; settings: for EC50: read-out: pEC50 M3 (converted); for Emax: CHO
T2 construct: expressed in transfected cells
T2 sequence (P20309 whole entry): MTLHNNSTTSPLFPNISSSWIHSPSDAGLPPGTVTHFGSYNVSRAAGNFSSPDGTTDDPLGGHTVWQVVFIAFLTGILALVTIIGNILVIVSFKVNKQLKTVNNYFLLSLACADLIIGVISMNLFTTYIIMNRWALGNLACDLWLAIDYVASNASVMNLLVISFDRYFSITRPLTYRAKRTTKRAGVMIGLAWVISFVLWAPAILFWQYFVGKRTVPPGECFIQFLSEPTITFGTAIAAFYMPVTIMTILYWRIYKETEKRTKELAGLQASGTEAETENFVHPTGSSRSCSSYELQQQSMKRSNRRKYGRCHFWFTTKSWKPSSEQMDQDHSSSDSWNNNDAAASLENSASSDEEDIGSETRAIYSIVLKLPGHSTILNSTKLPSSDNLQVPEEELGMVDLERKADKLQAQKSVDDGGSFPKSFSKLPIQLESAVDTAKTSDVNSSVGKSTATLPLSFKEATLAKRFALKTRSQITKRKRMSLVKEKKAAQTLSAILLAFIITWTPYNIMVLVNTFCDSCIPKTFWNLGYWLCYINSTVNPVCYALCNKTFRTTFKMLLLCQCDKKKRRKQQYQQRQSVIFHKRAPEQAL
Method: as §1

[3] = target: T3, human muscarinic M2 receptor (Homo sapiens, UniProt P08172); experiment: Alphascreen Surefire phospho-ERK1/2 functional assay, M2; settings: for EC50: CHO cells stably expressing human M2, read-out: pEC50 M2 (converted); for Emax: CHO, read-out: % Emax cf. ACh (M2), CHO cells stably expressing human M2, relative to ACh
T3 sequence (P08172 1-466): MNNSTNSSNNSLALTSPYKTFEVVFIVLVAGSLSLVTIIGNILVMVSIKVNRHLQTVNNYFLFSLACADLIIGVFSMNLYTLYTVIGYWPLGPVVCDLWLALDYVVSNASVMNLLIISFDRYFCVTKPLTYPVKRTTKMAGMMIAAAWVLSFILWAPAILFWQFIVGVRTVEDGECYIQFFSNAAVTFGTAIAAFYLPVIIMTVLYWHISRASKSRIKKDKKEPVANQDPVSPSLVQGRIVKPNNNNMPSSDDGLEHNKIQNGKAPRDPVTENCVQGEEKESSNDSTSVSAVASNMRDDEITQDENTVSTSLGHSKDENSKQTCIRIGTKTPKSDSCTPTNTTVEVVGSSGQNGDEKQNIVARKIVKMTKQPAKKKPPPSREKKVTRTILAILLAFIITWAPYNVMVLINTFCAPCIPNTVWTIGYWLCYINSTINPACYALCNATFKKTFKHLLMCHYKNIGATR
Method: as §1

[4] = target: T4, human muscarinic M4 receptor (Homo sapiens, UniProt P08173); experiment: Alphascreen Surefire phospho-ERK1/2 functional assay, M4; settings: for EC50: read-out: pEC50 M4 (converted); for Emax: CHO
T4 construct: expressed in transfected cells
T4 sequence (P08173 1-479): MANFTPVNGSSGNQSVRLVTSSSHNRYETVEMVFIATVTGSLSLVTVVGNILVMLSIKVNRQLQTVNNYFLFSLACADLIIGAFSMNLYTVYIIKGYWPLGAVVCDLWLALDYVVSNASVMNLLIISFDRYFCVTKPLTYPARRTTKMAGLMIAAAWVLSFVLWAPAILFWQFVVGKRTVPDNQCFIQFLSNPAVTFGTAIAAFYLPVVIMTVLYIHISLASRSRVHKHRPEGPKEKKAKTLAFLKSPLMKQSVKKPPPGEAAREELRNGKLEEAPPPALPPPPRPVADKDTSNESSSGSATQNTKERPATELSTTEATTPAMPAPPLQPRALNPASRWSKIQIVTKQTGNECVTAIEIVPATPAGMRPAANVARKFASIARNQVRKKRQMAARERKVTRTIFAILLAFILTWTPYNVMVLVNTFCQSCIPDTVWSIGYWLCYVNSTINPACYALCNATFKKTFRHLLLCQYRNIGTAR

[5] = CHO cells stably expressing human M1
[6] = CHO cells stably expressing human M3, phospho-ERK1/2
[7] = read-out: % Emax cf. ACh (M3), CHO cells stably expressing human M3, phospho-ERK1/2, relative to ACh
[8] = CHO cells stably expressing human M4, phospho-ERK1/2
[9] = read-out: % Emax cf. ACh (M4), CHO cells stably expressing human M4, phospho-ERK1/2, relative to ACh
[10] = CHO cells stably expressing human M4, phospho-ERK1/2, relative to ACh

EC50 [1, 5] [nM] | Emax [1] [%] | EC50 [2, 6] [nM] | Emax [2, 7] [%] | EC50 [3] [nM] | Emax [3] [%] | EC50 [4, 8] [nM] | Emax [4, 9] [%] | pEC50 M1 [1, 5] | % Emax cf. ACh (M1) [1, 5] [%] | pEC50 M3 [2, 6] | % Emax cf. ACh (M3) ([2]; CHO cells stably expressing human M3, phospho-ERK1/2, relative to ACh) [%] | pEC50 M2 ([3]; CHO cells stably expressing human M2) | % Emax cf. ACh (M2) ([3]; CHO cells stably expressing human M2, relative to ACh) [%] | pEC50 M4 [4, 8] | % Emax cf. ACh (M4) [4, 10] [%] | SMILES | Emax ([2]; read-out: % Emax cf. ACh (M3)) [%] | Emax ([4]; read-out: % Emax cf. ACh (M4)) [%]
> 20000 | 19 | > 20000 | 5 | > 20000 | 2 | 10 | 46 |  |  |  |  |  |  |  |  | CCOC(=O)N1CC2(CCC(N3CCC(N(C(C)=O)C4CC4)CC3)C2)C1 (racemic) [3-1 Racemic] |  | 
2510 | 47 | > 20000 | 5 | > 20000 | 12 | 100 | 108 |  |  |  |  |  |  |  |  | CCOC(=O)N1CCC2(CC(N3CCC(C(C)N(C(=O)CC)C4CC4)CC3)C2)C1 (single isomer, unassigned) [2-14 Isomer 2] |  | 
398 | 89 | > 20000 | 2 | > 20000 | 5 | 39.8 | 91 |  |  |  |  |  |  |  |  | CCOC(=O)N1CCC2(CC(N3CCC(N(C=O)CC)CC3)C2)C1 (single isomer, unassigned) [2-16 Isomer 2] |  | 
100 |  | > 20000 | 58 | > 20000 | 31 | 63.1 |  |  | 115 |  |  |  |  |  | 118 | CCOC(=O)N1CCC2(CC(N3CCC(N(CC(C)C)C(C)=O)CC3)C2)C1 (single isomer, unassigned) [2-19 Isomer 2] |  | 
200 |  | > 20000 | 33 | > 20000 | 60 | 39.8 |  |  | 113 |  |  |  |  |  | 108 | CCOC(=O)N1CCC2(CC(N3CCC(N(CC4CC4)C(C)=O)CC3)C2)C1 (single isomer, unassigned) [2-20 Isomer 2] |  | 
398 | 91 | > 20000 | 17 | > 20000 | 5 | 10 | 124 |  |  |  |  |  |  |  |  | CCOC(=O)N1CCC2(CC(N3CCC(N(CC(F)F)C(C)=O)CC3)C2)C1 (single isomer, unassigned) [2-24 Isomer 2] |  | 
200 |  | > 20000 | 73 | 1260 | 29 | 158 |  |  | 99 |  |  |  |  |  | 84 | CCOC(=O)N1CCC2(CC(N3CCC(N(CC(C)(C)OC)C(C)=O)CC3)C2)C1 (single isomer, unassigned) [2-29 Isomer 2] |  | 
6310 | 59 |  |  |  |  | 251 | 103 |  |  |  |  |  |  |  |  | CCOC(=O)N1CC2(CC(N3CCC(N(CC)C(C)=O)CC3)C2)C1 [Example 1-2, Ethyl 6-{4-[acetyl(ethyl)amino]piperidin-1-yl}-2-azaspiro[3.3]heptane-2-carboxylate] |  | 

Continued, compound first:

SMILES | EC50 [1, 5] [nM] | Emax [1] [%] | EC50 [2, 6] [nM] | Emax [2, 7] [%] | EC50 [3] [nM] | Emax [3] [%] | EC50 [4, 8] [nM] | Emax [4, 9] [%] | pEC50 M1 [1, 5] | % Emax cf. ACh (M1) [1, 5] [%] | pEC50 M3 [2, 6] | % Emax cf. ACh (M3) ([2]; CHO cells stably expressing human M3, phospho-ERK1/2, relative to ACh) [%] | pEC50 M2 ([3]; CHO cells stably expressing human M2) | % Emax cf. ACh (M2) ([3]; CHO cells stably expressing human M2, relative to ACh) [%] | pEC50 M4 [4, 8] | % Emax cf. ACh (M4) [4, 10] [%] | Emax ([2]; read-out: % Emax cf. ACh (M3)) [%] | Emax ([4]; read-out: % Emax cf. ACh (M4)) [%]
CCOC(=O)N1CCC2(CC(N3CCC(N(CC)C(C)=O)CC3)C2)C1 (single isomer, unassigned) [2-2 Isomer 2] |  |  |  |  |  |  |  |  | 6.2 | 91 | < 4.7 | 9 | < 4.7 | 18 | 7.4 | 99 |  | 
CCOC(=O)N1CCC2(CC(N3CCC(N(C(C)=O)C4CC4)CC3)C2)C1 (single isomer, unassigned) [2-3 Isomer 2] | 200 |  | > 20000 | 6 | > 20000 | 13 | 31.6 |  |  | 93 |  |  |  |  |  | 93 |  | 
CCOC(=O)N1CCC2(CC(N3CCC(N(C(=O)C(F)(F)F)C4CC4)CC3)C2)C1 (single isomer, unassigned) [2-4 Isomer 2] | 200 | 104 | > 20000 | 9 | > 20000 | 3 | 31.6 | 114 |  |  |  |  |  |  |  |  |  | 
CCOC(=O)N1CCC2(CC(N3CCC(N(C(=O)CC)C4CC4)CC3)C2)C1 (single isomer, unassigned) [2-5 Isomer 2] | 631 | 57 | > 20000 | 5 | > 20000 | 5 | 100 | 91 |  |  |  |  |  |  |  |  |  | 
CCOC(=O)N1CCC2(CC(N3CCC(N(C(C)=O)C4CCC4)CC3)C2)C1 (single isomer, unassigned) [2-6 Isomer 2] | 100 | 101 | > 20000 | 14 | > 20000 | 7 | 31.6 | 98 |  |  |  |  |  |  |  |  |  | 
CCOC(=O)N1CCC2(CC(N3CCC(N(CC)CC(F)(F)F)CC3)C2)C1 (single isomer, unassigned) [2-7 Isomer 2] | 79.4 | 120 | > 20000 | 10 | > 20000 | 16 | 12.6 | 118 |  |  |  |  |  |  |  |  |  | 
CCOC(=O)N1CCC2(CC(N3CCC(N(CCOC)C4CC4)CC3)C2)C1 (single isomer, unassigned) [2-8 Isomer 2] | > 20000 | 4 | > 20000 | 6 | > 20000 | 6 | 20 | 57 |  |  |  |  |  |  |  |  |  | 
CCOC(=O)N1CCC2(CC(N3CCC(N(CC(=O)OC)C4CC4)CC3)C2)C1 (single isomer, unassigned) [2-9 Isomer 2] | > 20000 | 14 | > 20000 | 5 | > 20000 | 6 | 100 | 92 |  |  |  |  |  |  |  |  |  | 
CCOC(=O)N1CCC2(CC(N3CCC(N(Cc4ccon4)C4CC4)CC3)C2)C1 (single isomer, unassigned) [2-10 Isomer 2] | 794 | 42 | > 20000 | 7 | > 20000 | 11 | 31.6 | 122 |  |  |  |  |  |  |  |  |  | 
CCOC(=O)N1CCC2(CC(N3CCC(C(C)N(C(C)=O)C4CC4)CC3)C2)C1 (single isomer, unassigned) [2-13 Isomer 2] | > 20000 | 18 | > 20000 | 4 | > 20000 | 5 | 126 | 88 |  |  |  |  |  |  |  |  |  | 
CC(=O)OCC[N+](C)(C)C [ACh, acetylcholine, reference compound] |  |  |  |  |  |  |  |  |  |  |  |  |  |  |  |  | 115 | 110
